Broadly, the IC50 is the concentration needed to halve the response being measured.

In patent US9809623B2, “α4β7 peptide monomer and dimer antagonists” (Protagonist Therapeutics, Inc., priority 2014, dated 2017) one finds IC50 data, which are given here for 8 molecules.

Like-named read-outs stand apart in the source and are kept apart here. Numbered stars: 1 amine (or outer) side, 2 acyl side, 3 side chain; on linkers, the order of the positions; unused ones are H or OH. Bridge positions count the residues as written; N and C are the ends. Square brackets hold non-standard residues; d marks the D form. Peptide text beside a SMILES is read from it. I, II: the chains in the order shown. X2 = O=C(CCOCCOCCOCCOCCOCCOCCOCCOCCOCCOCCOCCOCCOCCOCCOCCOCCOCCOCCOCCOCCOCCOCCOCCOCCOCCC(=O)[*:2])[*:1]; Phe(4-tBu) = CC(C)(C)c1ccc(C[C@H](N)C(=O)O)cc1; Diglycolyl = O=C(COCC(=O)[*:2])[*:1]; NMeR = CN[C@@H](CCCNC(=N)N)C(=O)O; β3hE = N[C@@H](CCC(=O)O)CC(=O)O; Pen = CC(C)(S)[C@H](N)C(=O)O Some results are limits rather than exact numbers.

What all share (assay type): cell-based
For assay [1], the target named is T1, α4β7 (Homo sapiens, UniProt P13612+P26010). Kind of assay: α4β7-MAdCAM Cell Adhesion Assay (RPMI 8866 human cells). Also noted: host or cells: RPMI 8866 human B lymphoblastoid cells. The essentials: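 Adhesion read-out: MTT absorbance at 570 nm minus no-cell wells, after three washes. Plates coated with rh MAdCAM-1/Fc received peptide dilutions plus 200,000 RPMI 8866 cells in Mn2+ (1 mM)-supplemented DMEM, 0.1% BSA, HEPES pH 7, incubated 30-45 min, 37 °C.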

Assay [2] deals with α4β1 (Homo sapiens, UniProt P05556+P13612). Nature of the assay: α4β1-VCAM Cell Adhesion Assay (Jurkat E6.1 human cells). Also noted: host or cells: Jurkat E6.1 human T cells. Here is the method:
Jurkat E6.1 human cells (Sigma #88042803) were cultured in RPMI 1640 HEPES medium (Invitrogen #22400-089) supplemented with 10% serum (Fetal Bovine Serum, Invitrogen #16140-071), 1 mM sodium pyruvate (Invitrogen #11360-070), 2 mM L-glutamine (Invitrogen #25030-081) and Penicillin-Streptomycin (Invitrogen #15140-122) at 100 units of penicillin and 100 μg of streptomycin per ml. The cells were washed two times in DMEM medium (ATCC #30-2002) supplemented with 0.1% BSA, 10 mM HEPES pH 7 and 1 mM MnCl2. The cells were re-suspended in supplemented DMEM medium at a density of 4×10^6 cells/ml.
A Nunc MaxiSorp plate was coated with rh VCAM-1/CD106 Fc chimera (R&D #862-VC) at 400 ng per well in 50 ul per well in 1×PBS and incubated at 4° C. overnight. The solution was then removed by shaking, blocked with 250 ul per well PBS containing 1% BSA, and incubated at 37° C. for 1 hr. The solution was removed by shaking. Peptides were diluted by serial dilution in a final volume of 50 ul per well (2× concentration). To each well, 50 ul of cells (200,000 cells) were added and the plate was incubated at 37° C., 5% CO2 for 30-45 min to allow cell adhesion. The wells were washed manually three times (100 ul per wash) with supplemented DMEM. After the final wash, 100 ul/well of supplemented DMEM and 10 ul/well of MTT reagent (ATTC cat#30-1010K) were added. The plate was incubated at 37° C., 5% CO2 for 2-3 hrs until a purple precipitate was visible. 100 ul of Detergent Reagent (ATTC cat#30-1010K) was added to each well. The plate was covered from the light, wrapped in Parafilm to prevent evaporation, and left overnight at room temperature in the dark. The plate was shaken for 5 min and the absorbance at 570 nm was measured. To calculate the dose response, the absorbance value of control wells not containing cells was subtracted from each test well.

The target of assay [3] is T1, α4β7. Nature of the assay: PBMC Memory T Cell Adhesion Assay, adhesion to MAdCAM-1. Conditions: Table 4-B; read-out: Cell Adhesion PBMC IC50. Put shortly: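 Fresh human CD4+/CD45RO+ memory T cells in binding medium with 1 mM MnCl2 were preincubated with compound for 1.5 h at 37° C. on plates coated with Fc-captured MAdCAM-1 (400 ng/well). Adherent cells were read by fluorescence (Ex 485/Em 530). IC50 came from four-parameter nonlinear regression of RFU versus log concentration.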

[4] abbreviates: Table 4-B, read-out: Cell Adhesion α4β7 IC50.
Where [5] appears, read: Table 4-B, read-out: Cell Adhesion α4β1 IC50.
Where [6] appears, read: Table 3-B, Potency (α4β7), range classes, read-out: α4β7 cell (Hu) IC50.
The mark [7] stands for this setting: Table 3-B, Selectivity (α4β1), range classes, read-out: α4β1 cell IC50.

Chain of α4β1 (P13612 34-1032): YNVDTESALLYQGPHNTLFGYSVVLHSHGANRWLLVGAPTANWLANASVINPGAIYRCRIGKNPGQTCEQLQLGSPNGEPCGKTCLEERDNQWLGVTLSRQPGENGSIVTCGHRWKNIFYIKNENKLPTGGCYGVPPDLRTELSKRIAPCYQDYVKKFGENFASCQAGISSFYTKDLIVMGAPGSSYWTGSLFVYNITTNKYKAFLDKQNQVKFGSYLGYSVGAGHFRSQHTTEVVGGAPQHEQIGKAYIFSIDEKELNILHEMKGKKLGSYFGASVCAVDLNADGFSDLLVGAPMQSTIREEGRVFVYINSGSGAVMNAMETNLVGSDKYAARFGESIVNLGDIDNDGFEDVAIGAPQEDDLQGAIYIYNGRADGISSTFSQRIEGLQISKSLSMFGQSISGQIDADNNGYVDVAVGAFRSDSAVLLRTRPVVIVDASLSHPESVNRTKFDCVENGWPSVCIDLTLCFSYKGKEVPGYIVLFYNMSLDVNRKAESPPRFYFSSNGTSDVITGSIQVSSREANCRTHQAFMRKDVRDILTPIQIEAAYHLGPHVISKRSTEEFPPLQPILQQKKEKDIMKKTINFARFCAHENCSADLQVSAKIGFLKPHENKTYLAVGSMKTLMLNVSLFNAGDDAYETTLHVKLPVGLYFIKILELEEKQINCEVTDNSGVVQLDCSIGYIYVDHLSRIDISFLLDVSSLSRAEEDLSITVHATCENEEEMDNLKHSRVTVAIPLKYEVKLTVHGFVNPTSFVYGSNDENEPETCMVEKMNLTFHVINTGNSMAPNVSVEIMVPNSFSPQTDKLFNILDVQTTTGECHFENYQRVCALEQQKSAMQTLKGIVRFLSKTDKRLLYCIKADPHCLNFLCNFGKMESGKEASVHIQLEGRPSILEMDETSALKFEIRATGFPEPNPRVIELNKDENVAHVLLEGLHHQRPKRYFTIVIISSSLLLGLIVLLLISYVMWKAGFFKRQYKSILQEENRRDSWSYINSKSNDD
Chain of α4β1 (P05556 21-798): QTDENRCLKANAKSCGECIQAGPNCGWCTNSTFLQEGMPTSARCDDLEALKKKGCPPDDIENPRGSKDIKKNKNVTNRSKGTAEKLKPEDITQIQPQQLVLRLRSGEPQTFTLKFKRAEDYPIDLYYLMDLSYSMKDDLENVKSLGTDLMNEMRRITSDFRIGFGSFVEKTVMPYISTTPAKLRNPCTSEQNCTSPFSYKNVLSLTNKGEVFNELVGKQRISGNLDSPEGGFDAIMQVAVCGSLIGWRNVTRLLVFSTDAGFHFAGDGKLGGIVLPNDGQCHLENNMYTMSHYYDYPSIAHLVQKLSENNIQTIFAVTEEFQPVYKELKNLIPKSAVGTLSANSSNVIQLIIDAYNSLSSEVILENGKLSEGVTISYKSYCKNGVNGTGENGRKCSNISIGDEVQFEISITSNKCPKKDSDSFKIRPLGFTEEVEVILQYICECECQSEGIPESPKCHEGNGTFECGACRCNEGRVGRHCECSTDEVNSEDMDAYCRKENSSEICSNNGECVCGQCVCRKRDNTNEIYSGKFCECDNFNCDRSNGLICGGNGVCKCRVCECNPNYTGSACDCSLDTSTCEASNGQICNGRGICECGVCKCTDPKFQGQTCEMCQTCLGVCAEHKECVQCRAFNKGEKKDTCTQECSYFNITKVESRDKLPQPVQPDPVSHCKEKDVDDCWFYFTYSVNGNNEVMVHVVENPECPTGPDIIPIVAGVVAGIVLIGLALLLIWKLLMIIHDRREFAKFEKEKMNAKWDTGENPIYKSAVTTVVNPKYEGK
T1 sequence (P13612 34-1032): as the sequence (P13612 34-1032) above
T1 sequence (P26010 20-798): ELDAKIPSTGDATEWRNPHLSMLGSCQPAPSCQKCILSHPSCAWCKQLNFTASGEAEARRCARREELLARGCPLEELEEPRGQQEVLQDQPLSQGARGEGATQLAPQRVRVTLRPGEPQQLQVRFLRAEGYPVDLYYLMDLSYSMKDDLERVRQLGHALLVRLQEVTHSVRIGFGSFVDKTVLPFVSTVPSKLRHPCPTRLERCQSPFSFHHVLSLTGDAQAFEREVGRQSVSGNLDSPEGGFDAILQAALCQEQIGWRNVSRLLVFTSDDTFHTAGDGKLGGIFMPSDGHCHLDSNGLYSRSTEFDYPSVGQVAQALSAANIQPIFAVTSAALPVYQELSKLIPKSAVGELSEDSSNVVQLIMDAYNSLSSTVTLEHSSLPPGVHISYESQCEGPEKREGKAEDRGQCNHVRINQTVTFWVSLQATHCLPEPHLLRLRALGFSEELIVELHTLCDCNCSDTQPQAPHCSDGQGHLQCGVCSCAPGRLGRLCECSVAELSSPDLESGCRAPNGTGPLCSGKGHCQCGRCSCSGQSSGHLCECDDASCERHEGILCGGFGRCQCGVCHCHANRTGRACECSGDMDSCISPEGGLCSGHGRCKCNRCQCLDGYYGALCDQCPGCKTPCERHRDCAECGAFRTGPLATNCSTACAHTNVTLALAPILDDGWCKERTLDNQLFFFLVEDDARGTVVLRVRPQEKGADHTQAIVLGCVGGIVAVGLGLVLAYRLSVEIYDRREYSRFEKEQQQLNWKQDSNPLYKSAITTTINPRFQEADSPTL

As to `CC(=O)N[C@@H]1C(=O)N(C)[C@@H](CCCNC(=N)N)C(=O)N[C@@H](CO)C(=O)N[C@@H](CC(=O)O)C(=O)N[C@@H]([C@@H](C)O)C(=O)N[C@@H](CC(C)C)C(=O)N[C@H](C(=O)N[C@@H](Cc2ccc(C(C)(C)C)cc2)C(=O)N[C@@H](CCC(=O)O)CC(=O)N[C@H](CCCCNC(=O)COCC(=O)NCCCC[C@@H](NC(=O)C[C@H](CCC(=O)O)NC(=O)[C@H](Cc2ccc(C(C)(C)C)cc2)NC(=O)[C@H]2NC(=O)[C@H](CC(C)C)NC(=O)[C@H]([C@@H](C)O)NC(=O)[C@H](CC(=O)O)NC(=O)[C@H](CO)NC(=O)[C@H](CCCNC(=N)N)N(C)C(=O)[C@@H](NC(C)=O)C(C)(C)SSC2(C)C)C(N)=O)C(N)=O)C(C)(C)SSC1(C)C` [compound 218, [Ac-Pen-(N-Me-Arg)-Ser-Asp-Thr-Leu-Pen-Phe(4-tBu)-(β-homoGlu)-(D-Lys)-NH2]2-DIG] (I: Ac-[Pen][NMeR]SDTL[Pen][Phe(4-tBu)][β3hE][dK]-NH2 / II: Ac-[Pen][NMeR]SDTL[Pen][Phe(4-tBu)][β3hE][dK]-NH2; disulfide I:1-I:7, II:1-II:7; linker I:10-II:10 via Diglycolyl), the results for the concentration for half-maximal inhibition (IC50) in assay [1] (setting [4]), in assay [2] (setting [5]) and in assay [3] were 0.78 nM, over 100000 nM and 2 nM, respectively.
As for `CC(=O)N[C@H]1CSSC[C@@H](C(=O)NCC(=O)N[C@@H](CCC(=O)O)C(=O)N[C@@H](CCCCNC(=O)CCOCCOCCOCCOCCOCCOCCOCCOCCOCCOCCOCCOCCOCCOCCOCCOCCOCCOCCOCCOCCOCCOCCOCCOCCOCCC(=O)NCCCC[C@H](NC(=O)[C@H](CCC(=O)O)NC(=O)CNC(=O)[C@@H]2CSSC[C@H](NC(C)=O)C(=O)N[C@@H](CCCNC(=N)N)C(=O)N[C@@H](CO)C(=O)N[C@@H](CC(=O)O)C(=O)N[C@@H]([C@@H](C)O)C(=O)N[C@@H](CC(C)C)C(=O)N2)C(N)=O)C(N)=O)NC(=O)[C@H](CC(C)C)NC(=O)[C@H]([C@@H](C)O)NC(=O)[C@H](CC(=O)O)NC(=O)[C@H](CO)NC(=O)[C@H](CCCNC(=N)N)NC1=O` [compound 197, (Ac-C-R-S-D-T-L-C-G-E-K-NH2)2-PEG25] (I: Ac-CRSDTLCGEK-NH2 / II: Ac-CRSDTLCGEK-NH2; disulfide I:1-I:7, II:1-II:7; linker I:10-II:10 via X2), the half-inhibitory concentration (IC50) in assay [1] (setting [4]) is 301 nM; in assay [2] (setting [5]), over 100000 nM.
`CC(=O)N[C@@H]1C(=O)N(C)[C@@H](CCCNC(=N)N)C(=O)N[C@@H](CO)C(=O)N[C@@H](CC(=O)O)C(=O)N[C@@H]([C@@H](C)O)C(=O)N[C@@H](CC(C)C)C(=O)N[C@H](C(=O)N[C@@H](Cc2c[nH]c3ccccc23)C(=O)N[C@@H](CCC(=O)O)C(=O)N[C@H](CCCCNC(=O)COCC(=O)NCCCC[C@@H](NC(=O)[C@H](CCC(=O)O)NC(=O)[C@H](Cc2c[nH]c3ccccc23)NC(=O)[C@H]2NC(=O)[C@H](CC(C)C)NC(=O)[C@H]([C@@H](C)O)NC(=O)[C@H](CC(=O)O)NC(=O)[C@H](CO)NC(=O)[C@H](CCCNC(=N)N)N(C)C(=O)[C@@H](NC(C)=O)C(C)(C)SSC2(C)C)C(N)=O)C(N)=O)C(C)(C)SSC1(C)C` [compound 67] (I: Ac-[Pen][NMeR]SDTL[Pen]WE[dK]-NH2 / II: Ac-[Pen][NMeR]SDTL[Pen]WE[dK]-NH2; disulfide I:1-I:7, II:1-II:7; linker I:10-II:10 via Diglycolyl): the values for the IC50 in assay [1] (setting [6]) and in assay [2] (setting [7]) were under 10 nM and over 100000 nM, respectively.
As for `CC(=O)N[C@@H]1C(=O)N(C)[C@@H](CCCNC(=N)N)C(=O)N[C@@H](CO)C(=O)N[C@@H](CC(=O)O)C(=O)N[C@@H]([C@@H](C)O)C(=O)N[C@@H](CC(C)C)C(=O)N[C@H](C(=O)N[C@@H](Cc2c[nH]c3ccccc23)C(=O)N[C@@H](CCC(=O)O)C(=O)N[C@H](CCCCNC(=O)COCC(=O)NCCCC[C@@H](NC(=O)[C@H](CCC(=O)O)NC(=O)[C@H](Cc2c[nH]c3ccccc23)NC(=O)[C@H]2NC(=O)[C@H](CC(C)C)NC(=O)[C@H]([C@@H](C)O)NC(=O)[C@H](CC(=O)O)NC(=O)[C@H](CO)NC(=O)[C@H](CCCNC(=N)N)N(C)C(=O)[C@@H](NC(C)=O)C(C)(C)SSC2(C)C)C(=O)O)C(=O)O)C(C)(C)SSC1(C)C` [compound 78] (I: Ac-[Pen][NMeR]SDTL[Pen]WE[dK]-OH / II: Ac-[Pen][NMeR]SDTL[Pen]WE[dK]-OH; disulfide I:1-I:7, II:1-II:7; linker I:10-II:10 via Diglycolyl), the IC50 was under 10 nM in assay [1] (setting [6]) and over 100000 nM in assay [2] (setting [7]).
For the molecule `CC(=O)N[C@H]1CSSC[C@@H](C(=O)NCC(=O)N[C@@H](CCC(=O)O)C(N)=O)NC(=O)[C@H](CC(C)C)NC(=O)[C@H]([C@@H](C)O)NC(=O)[C@H](CC(=O)O)NC(=O)[C@H](CO)NC(=O)[C@H](CCCNC(=N)N)N(C)C1=O` [compound 198, Ac-C-N-Me-R-S-D-T-L-C-G-E-NH2] (Ac-C[NMeR]SDTLCGE-NH2; disulfide 1-7), the values for the 50% inhibitory concentration (IC50) in assay [1] (setting [4]) and in assay [2] (setting [5]) were 1120 nM and over 100000 nM, respectively.
Regarding `CC(=O)N[C@@H]1C(=O)N(C)[C@@H](CCCNC(=N)N)C(=O)N[C@@H](CO)C(=O)N[C@@H](CC(=O)O)C(=O)N[C@@H]([C@@H](C)O)C(=O)N[C@@H](CC(C)C)C(=O)N[C@H](C(=O)N[C@@H](Cc2c[nH]c3ccccc23)C(=O)N[C@@H](CCC(=O)O)C(=O)N[C@H](CCCCNC(=O)COCC(=O)NCCCC[C@@H](NC(=O)[C@H](CCC(=O)O)NC(=O)[C@H](Cc2c[nH]c3ccccc23)NC(=O)[C@H]2NC(=O)[C@H](CC(C)C)NC(=O)[C@H]([C@@H](C)O)NC(=O)[C@H](CC(=O)O)NC(=O)[C@H](CO)NC(=O)[C@H](CCCNC(=N)N)N(C)C(=O)[C@@H](NC(C)=O)C(C)(C)SSC2(C)C)C(N)=O)C(N)=O)C(C)(C)SSC1(C)C` [compound 217, (Ac-Pen-N-Me-R-S-D-T-L-Pen-W-E-k-NH2)2-DIG] (I: Ac-[Pen][NMeR]SDTL[Pen]WE[dK]-NH2 / II: Ac-[Pen][NMeR]SDTL[Pen]WE[dK]-NH2; disulfide I:1-I:7, II:1-II:7 (inferred); linker I:10-II:10 via Diglycolyl (inferred)), the IC50 in assay [1] (setting [4]) is 3.2 nM; in assay [2] (setting [5]) it was over 100000 nM.
As for `CC(=O)N[C@@H]1C(=O)N(C)[C@@H](CCCNC(=N)N)C(=O)N[C@@H](CO)C(=O)N[C@@H](CC(=O)O)C(=O)N[C@@H]([C@@H](C)O)C(=O)N[C@@H](CC(C)C)C(=O)N[C@H](C(=O)N[C@@H](Cc2c[nH]c3ccccc23)C(=O)N[C@@H](CCC(=O)O)CC(=O)N[C@H](CCCCNC(=O)COCC(=O)NCCCC[C@@H](NC(=O)C[C@H](CCC(=O)O)NC(=O)[C@H](Cc2c[nH]c3ccccc23)NC(=O)[C@H]2NC(=O)[C@H](CC(C)C)NC(=O)[C@H]([C@@H](C)O)NC(=O)[C@H](CC(=O)O)NC(=O)[C@H](CO)NC(=O)[C@H](CCCNC(=N)N)N(C)C(=O)[C@@H](NC(C)=O)C(C)(C)SSC2(C)C)C(N)=O)C(N)=O)C(C)(C)SSC1(C)C` [compound 213, [Ac-Pen-(N-Me-Arg)-Ser-Asp-Thr-Leu-Pen-Trp-(β-homoGlu)-(D-Lys)-NH2]2-DIG] (I: Ac-[Pen][NMeR]SDTL[Pen]W[β3hE][dK]-NH2 / II: Ac-[Pen][NMeR]SDTL[Pen]W[β3hE][dK]-NH2; disulfide I:1-I:7, II:1-II:7; linker I:10-II:10 via Diglycolyl), the IC50 is 12 nM in assay [1] (setting [4]) and over 100000 nM in assay [2] (setting [5]).
`CC(=O)N[C@H]1CSSC[C@@H](C(=O)NCC(=O)N[C@@H](CCC(=O)O)C(=O)N[C@@H](CCCCN)C(N)=O)NC(=O)[C@H](CC(C)C)NC(=O)[C@H]([C@@H](C)O)NC(=O)[C@H](CC(=O)O)NC(=O)[C@H](CO)NC(=O)[C@H](CCCNC(=N)N)NC1=O` [compound 196, Ac-C-R-S-D-T-L-C-G-E-K-NH2] (Ac-CRSDTLCGEK-NH2; disulfide 1-7): the results for the IC50 in assay [1] (setting [4]) and in assay [2] (setting [5]) were 6660 nM and over 100000 nM, respectively.
